Assay results taken from patent publication US10166216B2 (Rigel Pharmaceuticals, Inc., priority 2006, dated 2019).
pIC50: −log10 of the molar value.

Molecular target: Axl (Homo sapiens (Human), UniProt P30530)
Assay: Phospho-Akt in-cell Western assay (Axl-antibody cross-linking stimulation)
Type: cell-based
Conditions: inhibition of Axl activity
Procedure: The working solution: dilute the stock 1:20 with PBS immediately before use. • 10% SDS: working solution: 5% SDS (sodium dodecylsulfate), diluted in PBS Methods: Day 1:
A 96 well TC (tissue culture treated) plate was coated with 10 μg/mL poly-L-Lysine at 37° C. for 30 min, washed twice with PBS, and air-dried for 5 minutes before cells were added. Hela cells were seeded at 10,000 cells/well and the cells were starved in 100 μL starvation medium containing Axl/Fc for 24 hrs.
The cells were pre-treated with test compounds by adding 100 μL of 2× test compound to the starvation medium on the cells. The cells were incubated at 37° C. for 1 hr before stimulation.
The resulting mix was warmed to 37° C. 50 μL of 5× Axl 1st/2nd of antibody cluster was added to the cells and the cells were incubated at 37° C. for 5 min.
After 5 minutes stimulation, the plate was flicked to remove medium and the plate was tapped onto paper towels. Formaldehyde (4.0% in PBS, 100 μL) was added to fix the cells and the cells were incubated at ambient temperature for 20 min without shaking.
The cells were washed with a plate washer buffer to remove the formaldehyde solution. The plate was flicked to removed excess wash buffer and tapped onto paper towels. Quenching buffer (100 μL) was added to each well and the cells were incubated at ambient temperature for 20 minutes without shaking.
The cells were washed with a plate washer buffer to remove the quenching buffer. Blocking buffer (100 μL) was added and the cells were incubated at ambient temperature for at least an hour with gentle shaking.
The cells were washed with a plate washer buffer and diluted primary antibody (50 μL) was added to each well (blocking buffer was added to the negative control wells instead). The plates were incubated overnight at 4° C. with gentle shaking.
The wash buffer was removed, diluted secondary antibody (100 μL) was added, and the cells were incubated at ambient temperature for 1 hour with gentle shaking. During the incubation, the chemiluminescent reagent was brought to ambient temperature.
The secondary antibody was removed by washing the cells 1× with wash buffer, 1× with PBS by plate washer. The PBS was removed from the plate and the chemiluminescent reagent (80 μL: 40 μL A and 40 μL B) was added to each well at ambient temperature.
The resulting chemiluminescence was read with a Luminomitor within 10 minutes to minimize changes in signal intensity. […] The plate was tapped onto paper towels to remove excess liquid from wells and air-dried at ambient temperature for 5 minutes.
Crystal Violet working solution (60 μL) was added to each well and the cells were incubated at ambient temperature for 30 min. The crystal violet solution was removed, and the wells were rinsed with PBS, then washed 3× with PBS (200 μL) for 5 minutes each.
5% SDS solution (70 μL) was added to each well and the cells were incubated on a shaker for 30 min at ambient temperature.
This relative cell number was then used to normalize each luminescence reading. […]

[1] = Hela cells, phospho-Akt readout, Table 5, formula (Ia3)
[2] = Hela cells, phospho-Akt readout, Table 1, formula (Ia1)
[3] = phospho-Akt in-cell Western assay
[4] = Hela cells, phospho-Akt readout, Table 7, formula (Ia4)

Sequence of Axl (P30530 26-894): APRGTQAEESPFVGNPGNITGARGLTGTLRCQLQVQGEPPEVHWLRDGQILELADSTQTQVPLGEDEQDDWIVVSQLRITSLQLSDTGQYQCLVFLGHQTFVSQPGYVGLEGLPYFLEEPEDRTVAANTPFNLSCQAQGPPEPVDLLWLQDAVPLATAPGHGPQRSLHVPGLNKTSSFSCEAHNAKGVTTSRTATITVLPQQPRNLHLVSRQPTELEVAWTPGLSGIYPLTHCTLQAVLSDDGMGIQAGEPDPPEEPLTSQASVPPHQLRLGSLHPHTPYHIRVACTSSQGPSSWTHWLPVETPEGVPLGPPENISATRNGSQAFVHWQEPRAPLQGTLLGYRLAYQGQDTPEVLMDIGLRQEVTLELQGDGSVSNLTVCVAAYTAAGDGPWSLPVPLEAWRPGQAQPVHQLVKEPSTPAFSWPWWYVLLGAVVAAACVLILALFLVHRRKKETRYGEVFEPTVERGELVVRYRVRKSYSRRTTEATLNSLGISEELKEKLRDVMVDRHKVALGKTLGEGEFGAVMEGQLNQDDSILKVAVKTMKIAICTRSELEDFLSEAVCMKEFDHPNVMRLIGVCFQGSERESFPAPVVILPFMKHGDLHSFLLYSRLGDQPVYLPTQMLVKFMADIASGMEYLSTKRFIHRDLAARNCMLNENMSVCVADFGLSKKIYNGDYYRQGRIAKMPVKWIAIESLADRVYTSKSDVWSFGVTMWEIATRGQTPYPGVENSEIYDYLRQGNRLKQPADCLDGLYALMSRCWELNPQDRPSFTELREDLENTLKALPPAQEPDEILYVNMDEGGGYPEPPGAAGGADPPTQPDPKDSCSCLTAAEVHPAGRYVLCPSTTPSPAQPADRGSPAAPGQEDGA

pIC50 [3] | SMILES | further results
– | CN(C)[C@@H]1CCN(c2ccc(Nc3nc(N)n(-c4nccc5ccccc45)n3)cc2)C1 [Compound 164, N^3-(4-((R)-3-(dimethylamino)pyrrolidin-1-yl)phenyl)-1-(isoquinolin-1-yl)-1H-1,2,4-triazole-3,5-diamine] | pIC50 [1]: > 6.00
– | Nc1nc(Nc2ccc(OCCN3CCCC3)cc2)nn1-c1nncc2ccccc12 [Compound 25, 1-(phthalazin-1-yl)-N^3-(4-(2-(pyrrolidin-1-yl)ethoxy)phenyl)-1H-1,2,4-triazole-3,5-diamine] | pIC50 [2]: > 6.00
5.00 to 6.00 | Nc1nc(Nc2ccc(N3CCN(C4CC5CCC4C5)CC3)cc2)nn1-c1ccccn1 (stereo not shown) [Compound 94, N^3-(4-(4-(bicyclo[2.2.1]heptan-2-yl)piperazin-1-yl)phenyl)-1-(pyridin-2-yl)-1H-1,2,4-triazole-3,5-diamine] | –
> 6.00 | Cc1cc(Nc2nc(N)n(-c3ncnc4c(C)csc34)n2)ccc1N1CCN(C2CC3CCC2C3)CC1 (stereo not shown) [Compound 199, 1-(7-methylthieno[3,2-d]pyrimidin-4-yl)-N^3-(3-methyl-4-(4-(bicyclo[2.2.1]heptan-2-yl)-piperazin-1-yl)phenyl)-1H-1,2,4-triazole-3,5-diamine] | –
– | Cc1cc(Nc2nc(N)n(-c3nc4ccccc4c4ccccc34)n2)ccc1N1CCC(N2CCCC2)CC1 [Compound 214, 1-(phenanthridin-6-yl)-N^3-(3-methyl-4-(4-pyrrolidin-1-ylpiperidin-1-yl)phenyl)-1H-1,2,4-triazole-3,5-diamine] | pIC50 [1]: > 6.00
– | COc1cc2ncnc(-n3nc(Nc4ccc5c(c4)CCC(N(C)C4CC6CCC4C6)CC5)nc3N)c2cc1OC (stereo not shown) [Compound 224, 1-(6,7-dimethoxy-quinazolin-4-yl)-N^3-(7-(N-methyl-N-bicyclo[2.2.1]heptan-2-yl)amino-6,7,8,9-tetrahydro-5H-benzo[7]annulene-2-yl)-1H-1,2,4-triazole-3,5-diamine] | pIC50 [4]: > 6.00
> 6.00 | Nc1nc(Nc2ccc(N3CCN(C4CCCCC4)CC3)c(Cl)c2)nn1-c1nccc2ccccc12 [Compound 91, N^3-(3-chloro-4-(4-cyclohexylpiperazin-1-yl)phenyl)-1-(isoquinolin-1-yl)-1H-1,2,4-triazole-3,5-diamine] | –
– | Nc1nc(Nc2ccc(OCCN3CCCCC3)cc2)nn1-c1ccccc1 [Compound 1, 1-phneyl-N^3-(4-(2-(piperidin-1-yl)ethoxy)phenyl)-1H-1,2,4-triazole-3,5-diamine] | pIC50 [2]: < 4.70
– | Nc1nc(Nc2ccc(OCCN3CCCC3)cc2)nn1-c1nc(C(F)(F)F)nc2ccccc12 [Compound 53, N^3-(4-(2-(pyrrolidin-1-yl)ethoxy)phenyl)-1-(2-(trifluoromethyl)quinazolin-4-yl)-1H-1,2,4-triazole-3,5-diamine] | pIC50 [2]: > 6.00
> 6.00 | CN1CCN(c2ccc(Nc3nc(N)n(-c4ncnc5ccc(Cl)cc45)n3)cc2)CC1 [Compound 85, 1-(6-chloroquinazolin-4-yl)-N^3-(4-(4-methylpiperazin-1-yl)phenyl)-1H-1,2,4-triazole-3,5-diamine] | –
< 4.70 | Nc1nc(Nc2ccc(N3CCN(C4CC5CCC4C5)CC3)cc2)nn1-c1ncnc2cc(-c3ccc(Cl)cc3)sc12 (stereo not shown) [Compound 186, 1-(6-(4-chlorophenyl)thieno[3,2-d]pyrimidin-4-yl)-N^3-(4-(4-(bicyclo[2.2.1]heptan-2-yl)-piperazin-1-yl)phenyl)-1H-1,2,4-triazole-3,5-diamine] | –
> 6.00 | Cc1csc2c(-n3nc(Nc4ccc(N5CCN(C6CC7CCC6C7)[C@@H](C)C5)c(F)c4)nc3N)ncnc12 (stereo partly drawn) [Compound 249, 1-(7-methylthieno[3,2-d]pyrimidin-4-yl)-N^3-(3-fluoro-4-(3-(S)-methyl-4-(bicyclo[2.2.1]heptan-2-yl)piperazin-1-yl)phenyl)-1H-1,2,4-triazole-3,5-diamine] | –
> 6.00 | Cc1cc(Nc2nc(N)n(-c3ncnc4c(C)csc34)n2)ccc1N1CCN([C@H]2C[C@@H]3CC[C@H]2C3)[C@H](C)C1 [Compound 254, 1-(7-methylthieno[3,2-d]pyrimidin-4-yl)-N^3-(3-methyl-4-(3-(R)-methyl-4-((1S,2S,4R)-bicyclo[2.2.1]heptan-2-yl)piperazin-1-yl)phenyl)-1H-1,2,4-triazole-3,5-diamine] | –
– | Nc1nc(Nc2ccc(OCCN3CCCC3)c(F)c2)nn1-c1nccc2ccccc12 [Compound 58, N^3-(3-fluroo-4-(2-(pyrrolidin-1-yl)ethoxy)phenyl)-1-(isoquinolin-1-yl)-1H-1,2,4-triaozle-3,5-diamine] | pIC50 [2]: > 6.00
> 6.00 | Nc1nc(Nc2ccc(N3CCN(C4CC5CCC4C5)CC3)cc2)nn1-c1ncnc2c1sc1ncccc12 (stereo not shown) [Compound 184, 1-(pyrido[2,3-b]pyrimido[4,5-d]thiophene-4-yl)-N^3-(4-(4-(bicyclo[2.2.1]heptan-2-yl)-piperazin-1-yl)phenyl)-1H-1,2,4-triazole-3,5-diamine] | –
– | Nc1nc(Nc2ccc(C(=O)O)cc2)nn1-c1ccnc(N2CCC[C@H]2CN2CCCC2)c1 [Compound 146, (S)-4-(5-amino-1-(2-(2-(pyrrolidin-1-ylmethyl)pyrrolidin-1-yl)pyridin-4-yl)-1H-1,2,4-triazol-3-ylamino) benzoic acid] | pIC50 [1]: < 4.70
– | COc1cc2ncnc(-n3nc(Nc4ccc5c(c4)CCC(NC4CC6CCC4C6)CC5)nc3N)c2cc1OC (stereo not shown) [Compound 223, 1-(6,7-dimethoxyquinazolin-4-yl)-N^3-(7-(N-bicyclo[2.2.1]heptan-2-yl)amino-6,7,8,9-tetrahydro-5H-benzo[7]annulene-2-yl)-1H-1,2,4-triazole-3,5-diamine] | pIC50 [4]: > 6.00
> 6.00 | COc1cc2ncnc(-n3nc(Nc4ccc(N5CCN(C6CCCCC6)CC5)c(F)c4)nc3N)c2cc1OC [Compound 122, N^3-(4-(4-cyclohexylpiperazin-1-yl)-3-fluorophenyl)-1-(6,7-dimethoxyquinazolin-4-yl)-1H-1,2,4-triazole-3,5-diamine] | –
5.00 to 6.00 | COc1ccc2nc(Cl)c(-n3nc(Nc4ccc(N5CCN([C@H]6C[C@@H]7CC[C@H]6C7)CC5)c(F)c4)nc3N)nc2c1 [Compound 227, 1-(2-chloro-6-methoxy-quinoxalin-3-yl)-N^3-(3-fluoro-4-(4-((1S,2S,4R)-bicyclo[2.2.1]heptan-2-yl)piperazin-1-yl)phenyl)-1H-1,2,4-triazole-3,5-diamine] | –
– | COc1cc2ccnc(-n3nc(Nc4ccc(C5CCN(C)CC5)cc4)nc3N)c2cc1OC [Compound 174, 1-(6,7-dimethoxyisoquinolin-1-yl)-N^3-(4-(1-methylpiperidin-4-yl)phenyl)-1H-1,2,4-triazole-3,5-diamine] | pIC50 [1]: > 6.00
< 4.70 | Cc1cccc(-c2nc(-n3nc(Nc4ccc(N5CCN(C6CC7CCC6C7)CC5)cc4)nc3N)c3scc(C)c3n2)c1 (stereo not shown) [Compound 233, 1-(7-methyl-2-m-tolylthieno[3,2-d]pyrimidin-4-yl)-N^3-(4-(4-(bicyclo[2.2.1]heptan-2-yl)piperazin-1-yl)phenyl)-1H-1,2,4-triazole-3,5-diamine] | –
– | Nc1nc(Nc2ccc(OCCN3CCCC3)c(F)c2)nn1-c1ncnc2sc3c(c12)CCCC3 [Compound 68, N^3-(3-fluoro-4-(2-(pyrrolidin-1-yl)ethoxy)phenyl)-1-(5,6,7,8-tetrahydrobenzo[4,5]thieno[2,3-d]pyrimidin-4-yl)-1H-1,2,4-triazole-3,5-diamine] | pIC50 [2]: > 6.00
5.00 to 6.00 | Cc1cc(N2CCN(C3CC4CCC3C4)CC2)ccc1Nc1nc(N)n(-c2nc(Cl)nc3c(C)csc23)n1 (stereo not shown) [Compound 200, 1-(7-methyl-2-chlorothieno[3,2-d]pyrimidin-4-yl)-N^3-(2-methyl-4-(4-(bicyclo[2.2.1]heptan-2-yl)-piperazin-1-yl)phenyl)-1H-1,2,4-triazole-3,5-diamine] | –
– | Cc1csc2c(-n3nc(Nc4ccc5c(c4)CCC(N4CCCC4)CC5)nc3N)nc(Cl)nc12 (stereo not shown) [Compound 219, 1-(7-methyl-2-chlorothieno[3,2-d]pyrimidin-4-yl)-N^3-(7-pyrrolidin-1-yl-6,7,8,9-tetrahydro-5H-benzo[7]annulene-2-yl)-1H-1,2,4-triazole-3,5-diamine] | pIC50 [4]: > 6.00

SMILES | pIC50 [3] | further results
Cc1csc2c(-n3nc(Nc4ccc(N5CCN([C@H]6C[C@@H]7CC[C@H]6C7)[C@@H](C)C5)c(F)c4)nc3N)nc(Cl)nc12 [Compound 257] | > 6.00 | –
